Data taken from US4629627A, “Antiviral substance and the manufacturing method thereof” (priority 1978, dated 1986).

Columns and labels:
liver cancer in rats [1] = conditions: rat's liver; cited from earlier work
liver cancer in rats [2] = test: Experiment 3: depression of liver cancer induced by 3'-Me-DAB in rats; format: in vivo, Wister male rats
Text: The present inventor asked Prof. Nobuhiko Kanno, Biological Laboratory, Dept. of Pharmacology, Toyama Medical and Pharmacologival University, to test the activity of the present antiviral substance to depress the liver cancer in rats on pathogens of viruses.
1. Test animals: Wister male rats of 4 weeks of age were fed for 5 days as usual and tested.
2. Carcinogenic substance: 3'-methyl-4-dimethyl amino azobenzene (3'-Me-DAB) [drawing 1]
(1) Control group: standard food
(2) L group: standard food+L
(3) L+DAB group 0.06% 3'-Me-DAB containing food+L
(4) DAB group 0.06% 3'-Me-DAB containing food
Note: L: a frozen dry powder of the extract of the nutrient medium and tissue-medium of Lentinus edodes DAB: 3'-Me-DAB
4. Quantity and the method of giving the freeze-dried powder of the extract of the nutrient medium and tissue-medium of Lentinus edodes […]
The freeze-dried powder of the nutrient medium and tissue-medium of Lentinus edodes was dissolved in physiological salt water, and given intraperitoneally; the same dose of physiological salt water was similarly given to the control group.

**Q.** With `Cc1cccc(N=Nc2ccc(N(C)C)cc2)c1` [3'-Me-DAB, 3'-methyl-4-dimethyl amino azobenzene] as the molecule, how does the carcinogenic property (liver cancer in rats [1]) read?
**A.** Its carcinogenic property is “specific and strong carcinogenic property”.

**Q.** And the “liver finding at autopsy” value (liver cancer in rats [2]; dissection, after 14 and 18 weeks)?
**A.** Its value is “fine yellowish white particles which seemed to be cancerous tissue were seen all over the liver”.

**Q.** What about the “microscopic findings of the liver tissue” value (liver cancer in rats [2]; hematoxin-eosin) of the same molecule?
**A.** The value was “severe disarrangement of cells and the glandular structure specific to liver cancer (adeno carcinoma)”.

**Q.** And the depilation (liver cancer in rats [2]; microscopic observation, within about 5 and 15 weeks)?
**A.** Its depilation is “depilation appeared on the abdomen in some a rats”.
